Values after ≈ are worked out from the molar mass of the structure shown. Like-named read-outs stand apart in the source and are kept apart here.
Assays:
DENV-2/NG [1] = assay: Antiviral effect after virus cell entry (post-treatment strategy); format: cell-based; conditions: for Viral inhibition percentage, post-treatment strategy: VERO cells infected with DENV-2/NG MOI = 1, then compounds 50 μg/mL for 48 h; for inhibition at 50 µg/mL: Dengue virus, DENV2, Vero, 48 h
Experimental: (§1) A total of 2.5 × 10^4 cells/well were seeded in 96-well plates. The cells were inoculated the following day with serial dilutions (10^− 1 to 10^− 6) of the supernatants from the EC50 experiments for 2 h. Next, the inoculum were removed, and 1.5% carboxymethylcellulose (Sigma-Aldrich) prepared in DMEM (Gibco®) supplemented with 2% FCS (Gibco®) was added, followed by incubation at 37 °C in a 5% CO 2 atmosphere. On the third day, the cells were fixed with a methanol-acetone (1:1) solution for 10 min, washed three times with PBS, and permeabilized with 0.1% Triton X-100 for 30 min, after which nonspecific site blocking was performed with 10% FBS in PBS. Then, DENV anti-envelope monoclonal antibody (mAb) was diluted 1:500 with PBS containing 10% FCS (Gibco®) was added, followed by incubation for 1 h at 37 °C. After washing with PBS, the plates were incubated for 30 min with an anti-mouse IgG secondary antibody conjugated to peroxidase. Finally, the reactions were stained with 3-amino-9-ethylcarbazole (AEC, Sigma-Aldrich), and the number of foci in each well were counted.
A total of 2.5 × 10^4 VERO cells were seeded in 24-well plates for 24 h, and a viral inoculum (DENV-2/NG at an MOI = 1) was then added and incubated for 2 h. Subsequently, the inoculum was removed, and the fractions (100 μg/mL) or characterized compounds (50 μg/mL) were added and incubated with the cells for an additional 48 h (post-treatment strategy). Next, the supernatants were collected and stored at − 70 °C until further processing via the multiwell plate focus assay. For each fraction or compound, two independent experiments were performed each with two replicates (n = 4). Suramin served as the positive control for viral inhibition.
(§2) Fig. 4 Antiviral effects of the compounds derived from the Pg- YP-I-22C fraction on some steps of the DENV replication cycle. The cells were treated with the compounds for 48 h and then infected with DENV (MOI = 1). This infection strategy (pre-treatment) is represented by the dark bars. In addition, independent cell cultures were infected with DENV (MOI = 1) and then treated with the compounds (post-treatment strategy; indicated by clear bars). The error bars correspond to the SEM. The asterisks indicate cases with statistically significant differences (Student’s t-test; p < 0.05) in relation to the control without treatment

DENV-2/NG [2] = assay: Antiviral effect on virus cell entry (pre-treatment strategy); format: cell-based; conditions: for inhibition at 50 µg/mL: Dengue virus, DENV2, Vero
Experimental: as §1
A total of 2.5 × 10^4 VERO cells were seeded in 24-well plates for 24 h, and the fractions (100 μg/mL) or characterized compounds (50 μg/mL) were then added and incubated with the cells for an additional 24 h (pre-treatment strategy). Subsequently, treatment was withdrawn, and a viral inoculum (DENV-2/NG at an MOI = 1) was added and incubated for 2 h. Subsequently, the virus was removed, and fresh medium was added for an additional 48 h, after which the supernatants were collected and stored at − 70 °C until further processing via the multiwell plate focus assay. For each fraction and compound, two independent experiments were performed each with two replicates (n = 4). Heparin (Sigma-Aldrich) served as the positive control for viral inhibition.
as §2

[3] = MTT cytotoxicity (CC50) in VERO cells; format: cell-based; conditions: African green monkey (Cercopithecus aethiops)
Experimental: The CC50 was determined via the 3-(4,5-dimethyl-2-thiazolyl)-2,5-diphenyl-2H-tetrazolium bromide) (MTT, Sigma-Aldrich) method. For this, 2.5 × 10^4 VERO cells were seeded in 96-well plates for 24 h. […] After the incubation period, an MTT solution (0.5 mg/mL) was added to the cultures, which were then incubated for an additional 3 h at 37 °C. Finally, dimethyl sulfoxide was added, and the absorbance was read at 450 nm in a Bio-Rad Benchmark® microplate reader. Cultures without extract, fractions, or compounds were processed as positive controls for viability. […] Each experimental condition was tested in triplicate in two independent experiments (n = 6).
To determine the CC50 and EC50, a regression analysis was performed with Probit Software. The SI of each molecule was determined from the relationship between the CC50 and EC50, using the formula SI = CC50/EC50. To compare the number of infectious viral particles released between the cells treated with each fraction or compound (for both the pre- and post-treatment strategies) and the untreated cells, Student’s t-test was used. […] Each experimental condition was tested in triplicate in two independent experiments (n = 6) to guaranty the statistical analysis and the figures show the average of those experiments.

DENV-2/NG [4] = assay: EC50 determination: VERO cells infected with DENV-2/NG in the presence of treatment, multiwell plate focus assay; format: cell-based; conditions: for EC50: Dengue virus, DENV2, Vero, read-out: Effective concentration 50% (EC50); for Selectivity index (SI): SI = CC50/EC50, VERO cells infected with DENV-2/NG
Experimental: The SI of each ethanolic extract, fraction, or compound was calculated from the relationship between the cytotoxic concentration 50% (CC50) and effective concentration 50% (EC50). The CC50 was determined via the 3-(4,5-dimethyl-2-thiazolyl)-2,5-diphenyl-2H-tetrazolium bromide) (MTT, Sigma-Aldrich) method. For this, 2.5 × 10^4 VERO cells were seeded in 96-well plates for 24 h. Subsequently, serial dilutions of the ethanolic extracts (7.8 μg/mL to 1000 μg/mL), fractions (6.25 to 400 μg/mL), and characterized compounds (6.25 to 400 μg/mL) were performed and incubated with the cells for 48 h. After the incubation period, an MTT solution (0.5 mg/mL) was added to the cultures, which were then incubated for an additional 3 h at 37 °C. Finally, dimethyl sulfoxide was added, and the absorbance was read at 450 nm in a Bio-Rad Benchmark® microplate reader. Cultures without extract, fractions, or compounds were processed as positive controls for viability. The CC50 was calculated as the extract concentration that reduced cell viability by 50% using regression analysis (Probit software). Each experimental condition was tested in triplicate in two independent experiments (n = 6). To calculate the EC50, 2.5 × 10^4 VERO cells were seeded in 96-well plates for 24 h. At 24 h, serial dilutions of each ethanolic extract (7.8 μg/mL to 1000 μg/mL), fraction (6.25 to 400 μg/mL), and characterized compound (6.25 to 400 μg/mL) were mixed with the DENV-2/NG strain (at a multiplicity of infection (MOI = 1) and added to the cell monolayers for 2 h. At 2 h post-inoculation (hpi), the mixtures were removed, and the same serial dilutions of the extracts, fractions, or compounds were added again and incubated for 24 h. Finally, the supernatants were collected and stored at − 70 °C until performing the multiwell plate focus assay.
as §1
To determine the CC50 and EC50, a regression analysis was performed with Probit Software. The SI of each molecule was determined from the relationship between the CC50 and EC50, using the formula SI = CC50/EC50. To compare the number of infectious viral particles released between the cells treated with each fraction or compound (for both the pre- and post-treatment strategies) and the untreated cells, Student’s t-test was used. All statistical analyses were performed using the Prism® 7.01 for Windows™ package (GraphPad Software, San Diego, CA), considering differences statistically significant at p < 0.05 in all cases. Each experimental condition was tested in triplicate in two independent experiments (n = 6) to guaranty the statistical analysis and the figures show the average of those experiments.

DENV-2 = conditions: cited from earlier work
[5] = read-out: Viral inhibition percentage, post-treatment strategy, VERO cells infected with DENV-2/NG MOI = 1, then compounds 50 μg/mL for 48 h, plate focus assay
[6] = read-out: Viral inhibition percentage, pre-treatment strategy, compounds 50 μg/mL added to VERO cells before infection with DENV-2/NG MOI = 1, plate focus assay
[7] = VERO cells, 48 h incubation, MTT, unit given, not in Table 1, read-out: Cytotoxic concentration 50% (CC50)

With `Cc1ccc(C(=O)Nc2ccc(S(=O)(=O)O)c3cc(S(=O)(=O)O)cc(S(=O)(=O)O)c23)cc1NC(=O)c1cccc(NC(=O)Nc2cccc(C(=O)Nc3cc(C(=O)Nc4ccc(S(=O)(=O)O)c5cc(S(=O)(=O)O)cc(S(=O)(=O)O)c45)ccc3C)c2)c1` [SURAMIN, suramin, reference compound] the “Viral inhibition percentage, post-treatment strategy” value (DENV-2/NG [1]; plate focus assay) was “better inhibition”.
For `O=C(O)c1cc(O)c(O)c(O)c1` [Gallic Acid, gallic acid], the inhibition at 50 µg/mL (DENV-2/NG [1]; [5]) was 67.3%, the inhibition at 50 µg/mL (DENV-2/NG [2]; [6]) was 52.6% and the CC50 at 48 h [3, 7] was 543 µg/mL (≈ 3190 µM). The EC50 (DENV-2/NG [4]) was 25.8 µg/mL and the “Selectivity index (SI)” value (DENV-2/NG [4]) was 21.1.
For `C[C@@H]1O[C@@H](O[C@H]2[C@H](Oc3cc(O)c4c(c3)O[C@H](c3ccc(O)cc3)CC4=O)O[C@H](CO)[C@@H](O)[C@@H]2O)[C@H](O)[C@H](O)[C@H]1O` [Naringin, naringin], the inhibition at 50 µg/mL (DENV-2/NG [1]; [5]) was 64.5%, the CC50 at 48 h [3, 7] was 647 µg/mL (≈ 1110 µM) and the EC50 (DENV-2/NG [4]) was 47.9 µg/mL. For the same molecule, the “Selectivity index (SI)” value (DENV-2/NG [4]) was 13.5.
For `C=C(C)[C@@H]1CC[C@]2(C)CC[C@]3(C)[C@H](CC[C@@H]4[C@@]5(C)CC[C@H](O)C(C)(C)[C@@H]5CC[C@]43C)[C@@H]12` [lupeol], the “Inhibition of infection in vitro by plant-derived compounds” value (DENV-2) is given as “greater than 50%”.
With `Oc1cc(O)c2c(c1)OC(c1ccc(O)c(O)c1)C(O)C2` (stereo not drawn) [Catechin, catechin] the inhibition at 50 µg/mL (DENV-2/NG [1]; [5]) was 91.8%, the “Viral inhibition percentage, post-treatment strategy” value (DENV-2/NG [1]; plate focus assay) was “greater than 90%” and the inhibition at 50 µg/mL (DENV-2/NG [2]; [6]) was 100%. The “Viral inhibition percentage, pre-treatment strategy” value (DENV-2/NG [2]; compounds 50 μg/mL added to VERO cells before infection with DENV-2/NG MOI = 1, plate focus assay) was “greater than 90%”, the CC50 at 48 h [3, 7] was 833 µg/mL (≈ 2870 µM) and the EC50 (DENV-2/NG [4]) was 33.7 µg/mL. The “Selectivity index (SI)” value (DENV-2/NG [4]) was 24.8.
In the case of `CC[C@H]1CC2CN3CCc4c([nH]c5ccc(OC)cc45)[C@](C(=O)OC)(C2)[C@H]13` (stereo in doubt) [voacangine], the “Inhibition of infection in vitro by plant-derived compounds” value (DENV-2) is listed as “greater than 50%”.
Molecule `O=c1c(O)c(-c2ccc(O)c(O)c2)oc2cc(O)cc(O)c12` [Quercetin, quercetin] has an inhibition at 50 µg/mL (DENV-2/NG [1]; read-out: Viral inhibition percentage, post-treatment strategy) of 100%, an inhibition at 50 µg/mL (DENV-2/NG [2]; read-out: Viral inhibition percentage, pre-treatment strategy) of 50% and a CC50 at 48 h [3] of 660 µg/mL (≈ 2180 µM). The EC50 (DENV-2/NG [4]) was 19.2 µg/mL and the “Selectivity index (SI)” value (DENV-2/NG [4]) was 34.3.
